Patent publication US20110277050A1, “SYSTEM AND METHODS TO CONTROL TRANSGENE EXPRESSION” (The Board of Trustees of the Leland Stanford Junior …, priority 2010, published 2011)

Experiments:
[1] = system: QUAS-luc2 reporter (QF activation, QS repression) in Drosophila S2 cells; assay: Dual luciferase reporter assay in transiently transfected Drosophila S2 cells, QUAS-luc2 reporter (QF/QS); type: cell-based
Procedure: (§1) S2 Cell Transfection: S2 cells (gift of M. Simon, Stanford University) were maintained in Shields and Sang M3 insect medium (Sigma, Catalog #S8398), prepared according to the manufacturer's instructions and supplemented with 10% heat inactivated fetal bovine serum (FBS) and antibiotics (from 100× penicillin/streptomycin stock, Invitrogen, Catalog #15140). FBS was heat inactivated at 56° C. for 30 minutes. The cells were grown in an air incubator at 25° C. For transfection, 0.4 ml of complete M3 medium containing 5*10^5 Drosophila S2 cells were plated into individual wells of 24-well plates several hours before the transfection. The DNA for transfection was mini-prepped (QIAprep Miniprep kit, Qiagen, Catalog #27106), DNA concentrations were determined using the Nanoprop 1000 spectrophotometer (Thermo Scientific), diluted in 10 mM TRIS-HCl pH 7.5, 0.1 mM EDTA to 25 ng/μl, and filtered through a 13-mm 0.2 μm filter (Nalgene, Catalog #180-1320). For individual transfections, we used 0.2 μg of total DNA (total of 8 μl from 25 ng/μl stocks) including one or more of the following: 25 ng of reporter, 12.5 ng of a transcription factor plasmid and the amount or repressor plasmid that was adjusted according to the molarity of the corresponding transcription factor plasmid to get either equimolar, 3-fold or 5-fold higher molar concentration, as indicated. Each sample also contained 2.5 ng of pPAC5C-hRluc, which was used for normalization of the firefly luciferase signal for each sample (see below) and pBluescript to supplement the total DNA amount to 0.2 μg. The cells were transfected using Effectene (Qiagen, Catalog #301425) according to the manufacturer's protocol (for each sample we used: 59 μl EC buffer; 1.6 μl enhancer solution; 4 μl Effectene and 350 μl M3 medium). 12 h after the addition of transfection mixes to cells, quinic acid was added where indicated from 50× stocks. The starting quinic acid stock solution (250 mg/ml) was prepared from D-(−)-quinic acid (Sigma-Aldrich, 98%, Catalog #138622) in sterile Milli-Q water and neutralized with NaOH to pH˜7. All other 50× stocks were made from this stock by dilution in water. Cells were lysed 24 h after the addition of quinic acid (36 h since the start of transfection), by spinning the 24-well plates for 5′ in a table top centrifuge at ˜1000 g, removing the supernatant by aspiration and incubation with of 200 μl passive lysis buffer (from the Dual Luciferase Reporter Assay System by Promega, Catalog #E1910) with shaking at room temperature for ˜30 minutes. The lysates were transferred into 1.5 ml tubes and frozen at −80° C. The lysates were analyzed using the Dual Luciferase Reporter Assay System, according to the manufacturer's instructions, and the single tube Turner Biosystems luminometer, model 20/20n. The luminescence light signal for both firefly and Renilla luciferases was collected for 10 s. All samples that were transfected with reporters had at least 100-fold higher signal than the background (lysates from pBluescript-only transfected cells). For each sample “X”, the relative luciferase activity (RLA) was calculated according to the following formula: […] where n=number of QUAS-only samples; F=Firefly luciferase luminescence signal; R=Renilla luciferase luminescence signal. Each condition was executed at least in triplicate, the average and SEM were determined for each condition, and statistical significance was evaluated using Student's t-test. […]

[2] = Stability of quinic acid in fly food, judged by derepression activity; type: physicochemical; conditions: food stored for at least a week at 18° C.
Procedure: (§2) Quinic acid feeding of flies: Quinic acid containing medium was made as follows: a few holes were made in standard fly medium with wooden sticks, and 0.3 ml of freshly made D-(−)-quinic acid (Sigma-Aldrich, 98%, Catalog #138622) solution dissolved in water was added per 10 ml of medium. Vials were allowed to air-dry overnight. […] For assaying the effect of quinic acid on developing animals, approximately 10 males and 15 females per vial of the genotype ET40-QF, QUAS-mtdT-3xHA (II); 82B^FRT tubP-QS (III) were allowed to lay eggs for 6 hours on quinic acid containing medium. Animals fed upon and developed in the quinic acid containing food. Adult flies were imaged within 3 days of eclosion. For assaying the effect of quinic acid feeding on adult flies, approximately 30 adult flies per vial of genotype ET40-QF, QUAS-mtdT-3xHA (II); 82B^FRT tubP-QS (III) were allowed to feed on quinic acid medium for the listed times in FIG. 3D. For feedings over multiple days, flies were transferred to fresh quinic acid containing food every two days.

[3] = system: QS inhibition of ET40-QF driven QUAS-mtdT-HA expression; assay: Quinic acid feeding of flies: derepression of QS (fluorescence imaging of adult flies); type: in vivo, Drosophila
Procedure: as §2
Imaging of adult flies: Adult flies were imaged on a Qlmaging Retiga 2000R Cooled Monochrome Digital camera using a Discovery V8 Pentafluor System (Zeiss) with a DS RED filter cube.

Flies = Flies kept on food containing high doses of quinic acid; type: in vivo, Drosophila; conditions: 9 generations on food containing high doses of quinic acid
Procedure: as §2

[4] = system: QUAS-luc2 reporter (QF activation, QS repression) in human HeLa cells; assay: Dual luciferase reporter assay in transiently transfected human HeLa cells, QUAS-luc2 reporter (QF/QS); type: cell-based
Procedure: (§3) HeLa Cell Transfection: HeLa cells (gift of K. Wehner, Stanford University) were maintained in Dulbecco's Modified Eagle Medium (DMEM, Invitrogen, Catalog #10566), supplemented with 10% FBS and antibiotics (from 100× penicillin/streptomycin stock, Invitrogen, Catalog #15140) in a 37° C. air incubator with 5% CO2. At least 5 hours before transfection, cells were detached and dissociated from the plate using Triple-express (Invitrogen, Catalog #12605) and plated into 24-well plates at 7*10^4 cells in 0.5 ml medium with FBS, but without antibiotics. Cells were transiently transfected using Lipofectamine 2000 (Invitrogen, Catalog #11668-019), according to the manufacturer's instructions. Plasmid DNA for transfection was prepared as described in the S2 cell transfection protocol above. For each sample we used 0.25 μg DNA (total of 10 μl from 25 ng/μl stocks) including one or more of the following: 50 ng of reporter, 25 ng of a transcription factor plasmid and the amount or repressor plasmid that was adjusted according to the molarity of the corresponding transcription factor plasmid to get either equimolar, 3-fold or 5-fold higher molar concentration, as indicated.
Each sample also contained 5 ng of pGL4.75 (hRluc/CMV from Promega), which was used for normalization of the firefly luciferase signal for each sample (see below), and pBluescript to supplement the total DNA amount to 0.25 μg. The DNA was mixed in 50 μl of Opti-MEM (Invitrogen, Catalog #51985) and combined with another 50 μl of Opti-MEM containing 1 μl of Lipofectamine. The medium containing the transfection mix was replaced with DMEM containing FBS and antibiotics 22 h after transfection. Where needed, the medium contained quinic acid supplemented from 50× stocks that were made as described in the S2 cell transfection protocol above. 24 h after the medium was changed, the cells were lysed in 24-well plates and processed as described above in the S2 cell transfection protocol. All samples that were transfected with reporters had at least 100-fold higher signal than the background (lysates from pBluescript-only transfected cells). […] Plasmids used for transfection in HeLa cells were: pUAS-luc2, pQUAS-luc2, pCMV-QF, pCMV-QS, pCMV-GAL4, pCMV-GAL80, pGL4.75 (Promega), pBluescript. Higher QS:QF or GAL80:GAL4 molar ratios are required for effective suppression in HeLa cells compared with Drosophila S2 cells. This phenomenon could be due to codon choice and/or differential activity or stability of activators and repressors at different temperatures—25° C. for S2 and 37° C. for HeLa.

[5] = system: UAS-luc2 reporter (GAL4 activation, GAL80 repression) in Drosophila S2 cells; assay: Dual luciferase reporter assay in transiently transfected Drosophila S2 cells, UAS-luc2 reporter (GAL4/GAL80); type: cell-based
Procedure: as §1

[6] = system: UAS-luc2 reporter (GAL4 activation) in human HeLa cells; assay: Dual luciferase reporter assay in transiently transfected human HeLa cells, UAS-luc2 reporter (GAL4); type: cell-based
Procedure: as §3
Each sample also contained 5 ng of pGL4.75 (hRluc/CMV from Promega), which was used for normalization of the firefly luciferase signal for each sample (see below), and pBluescript to supplement the total DNA amount to 0.25 μg. […]

[7] = adult flies transferred to quinic acid-containing food

Molecule: O=C(O)[C@]1(O)C[C@@H](O)[C@@H](O)[C@H](O)C1 [quinic acid, D-(−)-quinic acid]
- suppression of QS to restore QF-based transcription [1]: significantly suppressed QS
- effect on QF activation of QUAS ([1]; high concentration (5 mg/ml)): no effect
- re-activation of QUAS compared to the control sample with QUAS, QF and 5xQS ([1]; highest QA concentration tested (QA3=5 mg/ml), 24 h): ~23 fold
- stability in food [2]: appears to be stable
- derepression in flies fed for up to 10 days compared with 5 days ([3]; adult flies on quinic acid food): no more derepression
- time after which reversion of suppression could be seen [3, 7]: 6 h
- time of marked reversion of suppression [3, 7]: 24 h
- time of saturation of reversion of suppression [3, 7]: ≤ 5 days
- reversion of QS inhibition of ET40-QF driven QUAS-mtdT-HA expression with increasing doses ([3]; quinic acid added to fly food on which flies developed): increasingly reverted
- abnormalities in flies (Flies): no noticeable abnormalities
- effect on QF-dependent transcription of QUAS [4]: no effect
- suppression of QS in mammalian cells ([4]; also observed in COS cells): does not suppress QS
- further suppression of QUAS activation in the presence of QF and 5xQS ([4]; two higher QA concentrations tested (250 μg/ml, 5 mg/ml)): ~13 fold
- derepression of GAL4 (effect on GAL80 repression of GAL4) ([5]; high concentration (5 mg/ml)): ~1.5 fold
- effect on Gal4 activation of UAS ([5]; high concentration (5 mg/ml)): no effect

B1: GAL4: budding yeast transcription factor of the GAL4/UAS binary expression system (protein, UniProt P04386 1-881, looked up)
Regulatory protein GAL4: MKLLSSIEQACDICRLKKLKCSKEKPKCAKCLKNNWECRYSPKTKRSPLTRAHLTEVESRLERLEQLFLLIFPREDLDMILKMDSLQDIKALLTGLFVQDNVNKDAVTDRLASVETDMPLTLRQHRISATSSSEESSNKGQRQLTVSIDSAAHHDNSTIPLDFMPRDALHGFDWSEEDDMSDGLPFLKTDPNNNGFFGDGSLLCILRSIGFKPENYTNSNVNRLPTMITDRYTLASRSTTSRLLQSYLNNFHPYCPIVHSPTLMMLYNNQIEIASKDQWQILFNCILAIGAWCIEGESTDIDVFYYQNAKSHLTSKVFESGSIILVTALHLLSRYTQWRQKTNTSYNFHSFSIRMAISLGLNRDLPSSFSDSSILEQRRRIWWSVYSWEIQLSLLYGRSIQLSQNTISFPSSVDDVQRTTTGPTIYHGIIETARLLQVFTKIYELDKTVTAEKSPICAKKCLMICNEIEEVSRQAPKFLQMDISTTALTNLLKEHPWLSFTRFELKWKQLSLIIYVLRDFFTNFTQKKSQLEQDQNDHQSYEVKRCSIMLSDAAQRTVMSVSSYMDNHNVTPYFAWNCSYYLFNAVLVPIKTLLSNSKSNAENNETAQLLQQINTVLMLLKKLATFKIQTCEKYIQVLEEVCAPFLLSQCAIPLPHISYNNSNGSAIKNIVGSATIAQYPTLPEENVNNISVKYVSPGSVGPSPVPLKSGASFSDLVKLLSNRPPSRNSPVTIPRSTPSHRSVTPFLGQQQQLQSLVPLTPSALFGGANFNQSGNIADSSLSFTFTNSSNGPNLITTQTNSQALSQPIASSNVHDNFMNNEITASKIDDGNNSKPLSPGWTDQTAYNAFGITTGMFNTTTMDDVYNYLFDDEDTPPNPKKE
- GAL4 activation of QUAS, fold less than that of UAS ([1]; cross-activation): ~200 fold
- induction of UAS [6]: ~1000 fold
- higher inducibility than QF/QUAS [5]: ~1.6 fold
- induction of luc2 expression from UAS-luc2 [5]: ~5,300 fold

B2: QF: transcriptional activator from the Neurospora crassa qa gene cluster, binds 16-base pair sequence (QUAS) (protein, UniProt P11638 1-816, looked up)
Transcription factor qa-1f: MPPKRKTLNAAAEANAHADGHADGNADGHVANTAASSNNARFADLTNIDTPGLGPTTTTLLVEPARSKRQRVSRACDQCRAAREKCDGIQPACFPCVSQGRSCTYQASPKKRGVQTGYIRTLELALAWMFENVARSEDALHNLLVRDAGQGSALLVGKDSPAAERLHARWATSRVNKSITRLLSGQAAQDPSEDGQSPSEDINVQDAGAKTSDFPHAPHLTFSAPKSSTAETRTLPGPVRPPISANTLENNLQPDGTGIGKLPPNHWRLLDIYFSYTHSWLPILEKKDMYQALYQYSEQGSLLPSANVESGVHAELWSALALASFQAAATAASSATGPASAAHGHDNAINPSPADISDTARKLIPLESGPFQVQHCRALLLLCLVSLGRDDWESAWLLVGFAVRVLLVVRTQLPPDDDRPRPRMRALLVACFIVDTIVSMRHNVPAHLKPDDIADLPLPEDGQDQWEPWTPCEGLGGEHTMLQMLRNPAYPLSTFNHLYGVTKLVALELLPRIRTSSQNAPLEFRSRLQQVIGHNSPFSVFVLSQDTASAFVPTAYLTRTVYLWAAAFSEPLNEHYSHLLIETLDQYQKRFGTYAIPPLIPSLLDSLLALKKQSHSSERHRRHLEELFPAYSSIWPRGGRHSNTGLQPIRQLELPPTATATASIMPHVMEQPLSTSINPVNDRFNGIPNPTPYNSDAALDAITQTNDYGSVNTHGILSTYPPPATHLNEASVALAPGGAPPRPPPPYVDSTTNHPPYHSNLVPMANFGYSTVDYDAMVDDLASIEYTDAVDVDPQFMTNLGFVPGCNFSDISTYEQ
- enhancement of luc2 expression from QUAS-luc2 compared with QUAS-luc2 alone [1]: ~3.300 fold
- induction of expression from QUAS [4]: ~24.000 fold
- QF activation of UAS, fold less than that of QUAS ([5]; cross-activation): ~1,500 fold
